In experiment [1] the test system is NF-kB reporter in Jurkat cells. The experiment can be described thus: NF-kB reporter assay in Jurkat cells stimulated with aCD3/aCD28/PMA. As to conditions: Homo sapiens; Jurkat cells, 1 hr compound pre-incubation, aCD3/aCD28/PMA stimulation 4 hr, One-Glo readout; read-out: NF-kB Reporter Assay IC50. In kind it is cell-based. An outline of the steps:
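Luminescence (One-Glo) from the NF-kB reporter yielded IC50 values. Stimulation lasted 4 h at 37° C with aCD3, aCD28 and PMA (final 5, 5 and 0.03 […]), after 1 h compound pre-exposure of 25,000 Jurkat cells per well in serum-free RPMI.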
(Reporter assays use an easily measured gene product as a stand-in for the process of interest.)

Another experiment has as its target Avi-tagged FL MALT-1 (Homo sapiens (Human), UniProt Q9UDY8). Put plainly: MALT-1 Fluorogenic Peptide Cleavage Assay (MALT1 inhibition assay). In kind it is biochemical. As to conditions: Ac-LRSR-AMC peptide substrate, 30 min pre-incubation, 90 min reaction at room temperature. An outline of the steps: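 Cleavage of Ac-LRSR-AMC, read as fluorescence at 342/441 nm after 90 min at room temperature, with substrate working stocks of 50 μM (Km) or 280 μM (10×Km). Enzyme, Avi-tagged full-length MALT-1 (40 nM stock), was first pre-incubated 30 min with compound in citrate/HEPES pH 6.89 buffer with TCEP, EDTA, CHAPS and 2% DMSO; IC50 fitted from normalised % inhibition.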

pIC50: −log10 of the molar value. A value given as a limit tells only on which side of the number the result lay.

Sequence of Avi-tagged FL MALT-1 (Q9UDY8 whole entry): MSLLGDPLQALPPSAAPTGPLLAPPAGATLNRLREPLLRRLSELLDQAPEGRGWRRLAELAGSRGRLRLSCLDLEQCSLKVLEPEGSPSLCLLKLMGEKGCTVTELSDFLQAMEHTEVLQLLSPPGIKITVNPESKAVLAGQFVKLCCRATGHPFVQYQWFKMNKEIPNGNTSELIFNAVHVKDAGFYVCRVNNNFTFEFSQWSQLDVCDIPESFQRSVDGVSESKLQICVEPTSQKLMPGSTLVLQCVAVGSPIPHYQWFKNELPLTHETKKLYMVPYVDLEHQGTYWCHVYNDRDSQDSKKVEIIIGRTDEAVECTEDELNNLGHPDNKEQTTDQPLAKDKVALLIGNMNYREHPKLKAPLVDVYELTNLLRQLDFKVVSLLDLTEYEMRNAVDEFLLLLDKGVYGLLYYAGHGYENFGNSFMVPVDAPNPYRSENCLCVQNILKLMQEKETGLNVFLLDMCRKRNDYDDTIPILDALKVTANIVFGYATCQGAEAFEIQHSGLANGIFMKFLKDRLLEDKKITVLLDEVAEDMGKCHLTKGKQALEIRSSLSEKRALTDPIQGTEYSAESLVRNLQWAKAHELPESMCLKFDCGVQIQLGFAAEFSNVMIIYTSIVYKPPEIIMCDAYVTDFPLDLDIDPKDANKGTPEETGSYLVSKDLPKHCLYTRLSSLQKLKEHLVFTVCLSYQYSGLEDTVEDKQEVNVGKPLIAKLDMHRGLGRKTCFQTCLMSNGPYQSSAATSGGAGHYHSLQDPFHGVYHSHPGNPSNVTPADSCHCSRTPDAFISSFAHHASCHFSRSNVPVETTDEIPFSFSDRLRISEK

For orientation: pIC50 means the IC50 on a negative log10 scale, so that one unit is a factor of ten. As for `Cn1ncc2cccc(NS(=O)(=O)c3cnn(-c4cc(N5CCCCC5)ccn4)c3)c21` [Compound I-250, N-(1-methyl-1H-indazol-7-yl)-1-(4-(piperidin-1-yl)pyridin-2-yl)-1H-pyrazole-4-sulfonamide], the pIC50 in experiment [1] is above 6.40; at Avi-tagged FL MALT-1, below 5.60.

As for `CN1CC(F)(c2ccnc(-n3cc(S(=O)(=O)Nc4cccc5cnn(C)c45)cn3)c2)C1` [Compound I-251, 1-(4-(3-fluoro-1-methylazetidin-3-yl)pyridin-2-yl)-N-(1-methyl-1H-indazol-7-yl)-1H-pyrazole-4-sulfonamide], the values for the negative logarithm of the IC50 (pIC50) (in experiment [1]; against Avi-tagged FL MALT-1) were above 6.40 and below 5.60, respectively.

As to `COC1(c2ccnc(-n3cc(S(=O)(=O)Nc4cccc5cnn(C)c45)cn3)c2)CN(C)C1` [Compound I-252], the values for the pIC50 (in experiment [1]; at Avi-tagged FL MALT-1) were above 6.40 and below 5.60, respectively.

In the case of `CC(=O)N1CC(F)(c2ccnc(-n3cc(S(=O)(=O)Nc4cccc5cnn(C)c45)cn3)c2)C1` [Compound I-253, 1-(4-(1-acetyl-3-fluoroazetidin-3-yl)pyridin-2-yl)-N-(1-methyl-1H-indazol-7-yl)-1H-pyrazole-4-sulfonamide], the pIC50 in experiment [1] is 6.00 to 6.40; against Avi-tagged FL MALT-1, below 5.60.

As for `COC1(c2ccnc(-n3cc(S(=O)(=O)Nc4cccc5cnn(C)c45)cn3)c2)CN(C(C)=O)C1` [Compound I-254], the values for the negative logarithm of the IC50 (pIC50) (in experiment [1]; on Avi-tagged FL MALT-1) were 5.60 to 6.00 and below 5.60, respectively.

For `Cc1n[nH]c2cccc(NS(=O)(=O)c3cnn(-c4cc(C5(O)CCC5)ccn4)c3)c12` [Compound I-255, 1-[4-(1-hydroxycyclobutyl)pyridin-2-yl]-N-(3-methyl-1H-indazol-4-yl)pyrazole-4-sulfonamide], the results for the pIC50 (in experiment [1]; at Avi-tagged FL MALT-1) were above 6.40 and below 5.60, respectively.

On to `Cn1ncc2cccc(NS(=O)(=O)c3cnn(-c4cc(C5(O)CCCCC5)ccn4)c3)c21` [Compound I-256, 1-[4-(1-hydroxycyclohexyl)pyridin-2-yl]-N-(1-methylindazol-7-yl)pyrazole-4-sulfonamide], for which the negative logarithm of the IC50 (pIC50) in experiment [1] was above 6.40; on Avi-tagged FL MALT-1, below 5.60.

For the compound `COCC(O)(COC)c1ccnc(-n2cc(S(=O)(=O)Nc3cccc4cnn(C)c34)cn2)c1` [Compound I-257, 1-(4-(2-Hydroxy-1,3-Dimethoxypropan-2-yl)Pyridin-2-yl)-N-(1-Methyl-1H-Indazol-7-yl)-1H-Pyrazole-4-Sulfonamide], the values for the pIC50 (in experiment [1]; against Avi-tagged FL MALT-1) were 5.60 to 6.00 and below 5.60, respectively.

As for `COc1ccc2cnn(C)c2c1NS(=O)(=O)c1cnn(-c2cc(C(C)(C)OC)ccn2)c1` [Compound I-258, N-(6-methoxy-1-methyl-1H-indazol-7-yl)-1-(4-(2-methoxypropan-2-yl)pyridin-2-yl)-1H-pyrazole-4-sulfonamide], the negative logarithm of the IC50 (pIC50) in experiment [1] is above 6.40; at Avi-tagged FL MALT-1, at least 6.40.

As to `COCC(COC)(OC)c1ccnc(-n2cc(S(=O)(=O)Nc3cccc4cnn(C)c34)cn2)c1` [Compound I-259, N-(1-methyl-1H-indazol-7-yl)-1-(4-(1,2,3-trimethoxypropan-2-yl)pyridin-2-yl)-1H-pyrazole-4-sulfonamide], the pIC50 in experiment [1] was 5.60 to 6.00; against Avi-tagged FL MALT-1 it was below 5.60.

As to `COc1ncc2cnn(C)c2c1NS(=O)(=O)c1cnn(-c2cc(C(C)(C)O)ccn2)c1` [Compound I-260, 1-(4-(2-hydroxypropan-2-yl)pyridin-2-yl)-N-(6-methoxy-1-methyl-1H-pyrazolo[4,3-c]pyridin-7-yl)-1H-pyrazole-4-sulfonamide], the negative logarithm of the IC50 (pIC50) (in experiment [1]; against Avi-tagged FL MALT-1) was 6.00 to 6.40 each time.

For `COc1ncc2cnn(C)c2c1NS(=O)(=O)c1cnn(-c2cc(C(C)(C)OC)ccn2)c1` [Compound I-261, N-(6-Methoxy-1-Methyl-1H-Pyrazolo[4,3-C]Pyridin-7-yl)-1-(4-(2-Methoxypropan-2-yl)Pyridin-2-yl)-1H-Pyrazole-4-Sulfonamide], the negative logarithm of the IC50 (pIC50) in experiment [1] is above 6.40; at Avi-tagged FL MALT-1, at least 6.40.

The record behind these values is patent US20240150321A1, “PYRAZOLYLSULFONAMIDE COMPOUNDS AND THEIR USE IN THERAPY” (HOTSPOT THERAPEUTICS, INC., priority 2022, published 2024).
